In assay [1] the target is T1, Cyclin-dependent kinase 5/CDK5 activator 1 (Homo sapiens, UniProt Q00535). Put plainly: Inhibition of full length N-terminal GST fused human CDK5(1 to 292 residues)/ p25 (99 to 307 residues) expressed in baculovirus expression system using FL peptide as substrate preincubated for 30 mins followed by substrate addition further incubated for 60 mins by EZ reader method.

A further assay has as its target CDK2/Cyclin A2 (Homo sapiens, UniProt P24941). Put plainly: Inhibition of full length N-terminal GST tagged human CDK2(1 to 298 residues)/CyclinA2 (1 to 432 residues) expressed in baculovirus expression system using FL peptide as substrate preincubated for 30 mins followed by substrate addition further incubated for 120 mins by EZ reader method.
The species named for the next assay is Homo sapiens. Briefly: Selectivity ratio of IC50 for inhibition of full length N-terminal GST tagged human CDK2(1 to 298 residues)/CyclinA2 (1 to 432 residues) to IC50 for inhibition of full length N-terminal GST fused human CDK5(1 to 292 residues)/ p25 (99 to 307 residues).
The next assay concerns the target CDK6/cyclin D3 (Homo sapiens, UniProt Q00534). Put plainly: Inhibition of full length N-terminal GST fused human CDK6 (1 to 326 residues)/CyclinD3 (1 to 292 residues) expressed in baculovirus expression system using FL peptide as substrate preincubated for 30 mins followed by substrate addition and further incubated for 120 mins by EZ reader method.
A further assay deals with CDK7/Cyclin H/MNAT1 (Homo sapiens, UniProt P50613). Put plainly: Inhibition of full length N-terminal GST fused human CDK7 (1 to 346 residues)/CyclinH (1 to 323 residues)/ MAT1 (1 to 309 residues) expressed in baculovirus expression system using FL peptide as substrate preincubated for 30 mins followed by substrate addition and further incubated for 90 mins by EZ reader method.

A further assay addresses CDK9/cyclin T1 (Homo sapiens, UniProt P50750). Briefly: Inhibition of full length N-terminal GST fused human CDK9(1 to 372 residues)/ His- tagged CyclinT1 (1 to 726 residues) expressed in baculovirus expression system using FL peptide as substrate preincubated for 30 mins followed by substrate addition and further incubated for 90 mins by EZ reader method.
A further assay concerns HEK-293T. Put plainly: Antiproliferative activity against human HEK293T cells assessed as cell growth inhibition incubated for 48 hrs. It is filed as functional, cell-based.
Assay [2] has as its target T1, Cyclin-dependent kinase 5/CDK5 activator 1. Put plainly: Inhibition of Nano-Luc fused human full length CDK5/P35 transfected in HEK293 cells incubated for 1 hr by NanoBRET assay. In kind it is cell-based.

Chain of CDK7/Cyclin H/MNAT1 (P51946 whole entry, the tested form may be a part): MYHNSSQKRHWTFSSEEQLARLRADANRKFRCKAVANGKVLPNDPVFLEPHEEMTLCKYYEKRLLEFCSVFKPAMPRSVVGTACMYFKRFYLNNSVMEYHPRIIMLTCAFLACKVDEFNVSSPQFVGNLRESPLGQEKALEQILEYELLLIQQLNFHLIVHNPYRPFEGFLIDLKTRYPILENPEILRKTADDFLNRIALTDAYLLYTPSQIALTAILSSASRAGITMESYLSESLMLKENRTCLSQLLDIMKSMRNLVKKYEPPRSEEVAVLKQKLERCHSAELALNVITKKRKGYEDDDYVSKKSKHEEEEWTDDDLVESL
Chain of CDK7/Cyclin H/MNAT1 (P50613 whole entry, the tested form may be a part): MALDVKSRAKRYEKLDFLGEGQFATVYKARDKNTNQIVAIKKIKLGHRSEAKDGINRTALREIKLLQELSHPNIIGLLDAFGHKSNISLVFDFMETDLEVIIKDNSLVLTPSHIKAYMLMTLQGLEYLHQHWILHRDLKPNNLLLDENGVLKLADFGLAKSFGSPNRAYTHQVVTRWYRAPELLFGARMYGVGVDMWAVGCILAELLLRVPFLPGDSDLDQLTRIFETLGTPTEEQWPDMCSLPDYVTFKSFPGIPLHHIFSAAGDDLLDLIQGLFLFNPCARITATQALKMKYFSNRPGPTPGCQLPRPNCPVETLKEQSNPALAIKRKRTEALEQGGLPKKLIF
Chain of CDK7/Cyclin H/MNAT1 (P51948 whole entry, further chain, the tested form may be a part): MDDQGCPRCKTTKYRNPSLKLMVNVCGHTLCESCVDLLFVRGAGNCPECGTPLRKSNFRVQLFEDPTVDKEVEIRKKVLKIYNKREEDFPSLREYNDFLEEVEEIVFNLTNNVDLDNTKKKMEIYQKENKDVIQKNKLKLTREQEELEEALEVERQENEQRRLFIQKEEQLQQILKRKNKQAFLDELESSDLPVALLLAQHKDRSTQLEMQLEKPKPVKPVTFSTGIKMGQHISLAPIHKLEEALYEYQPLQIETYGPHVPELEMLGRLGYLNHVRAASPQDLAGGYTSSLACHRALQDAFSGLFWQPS
Chain of CDK6/cyclin D3 (P30281 whole entry, the tested form may be a part): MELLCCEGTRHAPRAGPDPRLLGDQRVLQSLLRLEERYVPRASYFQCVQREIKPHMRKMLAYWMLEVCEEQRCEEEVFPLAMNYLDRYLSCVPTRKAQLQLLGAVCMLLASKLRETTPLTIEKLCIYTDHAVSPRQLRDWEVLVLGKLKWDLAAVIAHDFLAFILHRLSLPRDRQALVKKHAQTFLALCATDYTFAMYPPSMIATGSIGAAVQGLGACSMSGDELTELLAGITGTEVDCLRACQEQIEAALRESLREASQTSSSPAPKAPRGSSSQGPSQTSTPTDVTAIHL
Chain of CDK6/cyclin D3 (Q00534 whole entry, the tested form may be a part): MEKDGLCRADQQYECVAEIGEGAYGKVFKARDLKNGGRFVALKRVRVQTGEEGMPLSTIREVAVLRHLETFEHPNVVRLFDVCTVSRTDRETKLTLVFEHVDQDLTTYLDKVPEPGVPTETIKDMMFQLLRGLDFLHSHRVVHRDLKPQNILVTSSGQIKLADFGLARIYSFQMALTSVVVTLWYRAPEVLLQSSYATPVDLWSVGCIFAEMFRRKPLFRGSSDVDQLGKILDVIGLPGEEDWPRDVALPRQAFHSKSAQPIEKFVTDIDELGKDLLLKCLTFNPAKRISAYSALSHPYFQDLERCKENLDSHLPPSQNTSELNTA
Chain of CDK9/cyclin T1 (O60563 whole entry, the tested form may be a part): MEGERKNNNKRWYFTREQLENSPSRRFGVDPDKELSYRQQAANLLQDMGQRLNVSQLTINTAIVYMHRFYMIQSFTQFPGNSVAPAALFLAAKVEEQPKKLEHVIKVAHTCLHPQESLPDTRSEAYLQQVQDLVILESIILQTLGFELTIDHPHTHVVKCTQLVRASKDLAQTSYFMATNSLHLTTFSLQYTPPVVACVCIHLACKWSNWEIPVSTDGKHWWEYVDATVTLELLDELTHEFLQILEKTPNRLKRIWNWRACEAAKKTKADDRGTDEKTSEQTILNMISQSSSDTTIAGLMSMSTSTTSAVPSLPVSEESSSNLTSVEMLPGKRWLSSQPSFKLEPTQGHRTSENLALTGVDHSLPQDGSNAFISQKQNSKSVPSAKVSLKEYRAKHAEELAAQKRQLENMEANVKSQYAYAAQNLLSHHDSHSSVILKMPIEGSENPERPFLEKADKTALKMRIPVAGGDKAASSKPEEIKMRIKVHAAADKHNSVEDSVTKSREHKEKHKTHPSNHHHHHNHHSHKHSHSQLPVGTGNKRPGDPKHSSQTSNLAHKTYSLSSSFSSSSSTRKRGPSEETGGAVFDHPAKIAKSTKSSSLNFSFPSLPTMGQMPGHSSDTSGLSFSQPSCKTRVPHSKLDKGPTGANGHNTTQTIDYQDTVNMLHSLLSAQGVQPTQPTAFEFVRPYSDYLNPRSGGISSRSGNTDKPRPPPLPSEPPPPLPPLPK
Chain of CDK9/cyclin T1 (P50750 whole entry, the tested form may be a part): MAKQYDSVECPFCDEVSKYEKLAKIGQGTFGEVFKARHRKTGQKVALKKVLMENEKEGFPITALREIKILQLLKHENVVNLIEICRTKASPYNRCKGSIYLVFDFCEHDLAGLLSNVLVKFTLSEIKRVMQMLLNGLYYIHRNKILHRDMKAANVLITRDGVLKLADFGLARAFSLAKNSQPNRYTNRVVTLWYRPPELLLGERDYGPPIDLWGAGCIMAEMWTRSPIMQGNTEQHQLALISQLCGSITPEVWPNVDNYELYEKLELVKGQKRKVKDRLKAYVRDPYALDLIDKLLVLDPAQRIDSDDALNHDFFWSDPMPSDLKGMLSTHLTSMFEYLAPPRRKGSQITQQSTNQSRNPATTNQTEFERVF
T1 sequence (Q00535 whole entry, the tested form may be a part): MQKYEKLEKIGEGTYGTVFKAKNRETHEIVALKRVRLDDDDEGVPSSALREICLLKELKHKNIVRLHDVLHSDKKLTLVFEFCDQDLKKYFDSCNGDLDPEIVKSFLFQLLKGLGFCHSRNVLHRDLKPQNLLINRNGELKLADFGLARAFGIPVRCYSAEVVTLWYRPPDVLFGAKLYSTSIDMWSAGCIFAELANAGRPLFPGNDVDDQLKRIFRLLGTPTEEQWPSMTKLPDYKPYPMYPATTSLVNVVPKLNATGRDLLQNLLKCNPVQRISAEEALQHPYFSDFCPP
T1 sequence (Q15078 whole entry, further chain, the tested form may be a part): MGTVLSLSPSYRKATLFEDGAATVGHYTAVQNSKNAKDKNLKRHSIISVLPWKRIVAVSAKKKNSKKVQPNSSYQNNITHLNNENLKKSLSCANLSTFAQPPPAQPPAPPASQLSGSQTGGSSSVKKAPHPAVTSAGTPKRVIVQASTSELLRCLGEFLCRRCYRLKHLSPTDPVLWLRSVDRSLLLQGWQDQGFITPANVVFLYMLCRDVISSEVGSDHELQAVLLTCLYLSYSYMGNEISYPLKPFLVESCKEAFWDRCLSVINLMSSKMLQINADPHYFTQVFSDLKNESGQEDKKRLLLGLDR

For the molecule `OCc1ccn(-c2ccc(Nc3cc4nc(OC5CCNCC5)ccc4cn3)c(F)c2)n1`, the IC50 – broadly, the point on the concentration scale where inhibition reaches its midpoint – in assay [1] stood at 16 nM; on CDK2/Cyclin A2, 472 nM; on CDK6/cyclin D3, 1110 nM; against CDK7/Cyclin H/MNAT1, 87 nM; on CDK9/cyclin T1 it was 1970 nM. Moreover, the Ratio IC50 in the assay listed under Homo sapiens was 30.

Regarding `CC(C)c1cc(Nc2cc3nc([C@](C)(O)C4CCN(C)CC4)ccc3cn2)c(F)cn1`, the IC50 in assay [1] was found to be 0.8 nM; against CDK2/Cyclin A2 it was 66 nM; on CDK6/cyclin D3, 231 nM; at CDK7/Cyclin H/MNAT1, 147 nM; against CDK9/cyclin T1, 221 nM.

Consider `CC(C)c1cc(Nc2cc3nc([C@](C)(O)C4CCN(C)CC4)ccc3cn2)c(F)cc1C#N`, for which the IC50 in assay [1] was 1 nM; on CDK2/Cyclin A2, 156 nM; against CDK6/cyclin D3, 483 nM; against CDK7/Cyclin H/MNAT1 it was 104 nM; against CDK9/cyclin T1, 85 nM.

Consider `CN1CCC([C@@](C)(O)c2ccc3cnc(Nc4cc(N5CC6CCC(C5)O6)c(C#N)cc4F)cc3n2)CC1`, for which the IC50 in assay [1] was 0.8 nM; against CDK2/Cyclin A2, 166 nM; at CDK6/cyclin D3 it was 201 nM; on CDK7/Cyclin H/MNAT1, 94 nM; against CDK9/cyclin T1, 127 nM. In the assay listed under Homo sapiens, the Ratio IC50 worked out at 208.

With `CN1CCC([C@@](C)(O)c2ccc3cnc(Nc4cc(N5CCCC5)ncc4F)cc3n2)CC1`, the IC50 in assay [1] came out at 0.9 nM; against CDK2/Cyclin A2, 43 nM; against CDK6/cyclin D3 it was 272 nM; against CDK7/Cyclin H/MNAT1 it was 96 nM; on CDK9/cyclin T1, 115 nM.

With `CC(C)Oc1cc(Nc2cc3nc([C@](C)(O)C4CCN(C)CC4)ccc3cn2)c(F)cn1`, the IC50 in assay [1] was 1.2 nM; against CDK2/Cyclin A2, 98 nM; against CDK6/cyclin D3 it was 270 nM; against CDK7/Cyclin H/MNAT1, 362 nM; on CDK9/cyclin T1, 450 nM; in the assay with HEK-293T it was over 10000 nM.

As for `CN1CCC([C@@](C)(O)c2ccc3cnc(Nc4cc(OC5CCC5)ncc4F)cc3n2)CC1`, the IC50 in assay [1] is 3 nM; on CDK2/Cyclin A2 it was 209 nM; against CDK6/cyclin D3 it was 808 nM; against CDK7/Cyclin H/MNAT1 it was 729 nM; against CDK9/cyclin T1, 1140 nM.

Regarding `CN1CCC([C@@](C)(O)c2ccc3cnc(Nc4cc(C(F)(F)F)c(C#N)cc4F)cc3n2)CC1`, the IC50 was 2.2 nM in assay [1]; 212 nM on CDK2/Cyclin A2; 1430 nM at CDK6/cyclin D3; 294 nM on CDK7/Cyclin H/MNAT1; 280 nM on CDK9/cyclin T1.

`CC(C)Oc1cc(Nc2cc3nc([C@](C)(O)C4CCN(C)CC4)ccc3cn2)c(F)cc1C#N`: the IC50 in assay [1] stood at 2.2 nM; on CDK2/Cyclin A2, 332 nM; against CDK6/cyclin D3, 795 nM; against CDK7/Cyclin H/MNAT1, 161 nM; at CDK9/cyclin T1, 239 nM.

As for `CN1CCC([C@@](C)(O)c2ccc3cnc(Nc4ccc(-c5cccn(C)c5=O)cc4F)cc3n2)CC1`, the IC50 in assay [1] was found to be 2.8 nM; at CDK2/Cyclin A2, 264 nM; in assay [2] it was 1.2 nM; in the assay on HEK-293T, 5100 nM. Besides, in the assay filed under Homo sapiens, the Ratio IC50 was determined as 94.

As to `CCc1cc(Nc2cc3nc([C@](C)(O)C4CCN(C)CC4)ccc3cn2)c(F)cn1`, the IC50 worked out at 0.9 nM in assay [1]; 47 nM at CDK2/Cyclin A2; 235 nM against CDK6/cyclin D3; 194 nM at CDK7/Cyclin H/MNAT1; 223 nM at CDK9/cyclin T1.

Regarding `CN1CCC([C@@](C)(O)c2ccc3cnc(Nc4cc(C(N)=O)ncc4F)cc3n2)CC1`, the IC50 in assay [1] came to 4.4 nM; against CDK2/Cyclin A2, 136 nM; on CDK6/cyclin D3, 1230 nM; at CDK7/Cyclin H/MNAT1, 631 nM; on CDK9/cyclin T1 it was 353 nM.

With `CCc1cnn2c(NCc3ccc[n+]([O-])c3)cc(N3CCCC[C@H]3CCO)nc12` [DINACICLIB], the IC50 in the assay on HEK-293T stood at 23 nM.

Consider `CC(C)Nc1cc(Nc2cc3nc([C@](C)(O)C4CCN(C)CC4)ccc3cn2)c(F)cn1`, for which the IC50 in assay [1] is 6.3 nM; at CDK2/Cyclin A2 it was 341 nM; at CDK6/cyclin D3 it was 813 nM; against CDK7/Cyclin H/MNAT1 it was 784 nM; against CDK9/cyclin T1 it was 1300 nM.
